According to PubChem BioAssay (NCI):
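Step 1: Grow cells in 96-well plates. Step 2: Expose to compound for 48 hours at 5 concentrations. Step 3: Interpolate endpoints linearly; if unreached, use highest concentration. At the GI50, growth is halved. TGI is the concentration that stops growth completely.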

How the values were obtained:
Test in all cases: NCI-60 cell line screen, 48 h
HS 578T breast = system: HS 578T breast
M14 melanoma = system: M14 melanoma
MDA-MB-435 = system: MDA-MB-435
OVCAR-8 ovarian = system: OVCAR-8 ovarian
PC-3 prostate = system: PC-3 prostate
RXF 393 renal = system: RXF 393 renal
SF-295 CNS = system: SF-295 CNS
SNB-19 CNS = system: SNB-19 CNS
TK-10 renal = system: TK-10 renal
SK-OV-3 ovarian = system: SK-OV-3 ovarian

SMILES | TGI (HS 578T breast) | TGI (M14 melanoma) | TGI (MDA-MB-435) | TGI (OVCAR-8 ovarian) | TGI (PC-3 prostate) | TGI (RXF 393 renal) | TGI (SF-295 CNS) | TGI (SNB-19 CNS) | TGI (TK-10 renal) | TGI (SK-OV-3 ovarian) | GI50 (HS 578T breast) | GI50 (MDA-MB-435) | GI50 (OVCAR-8 ovarian) | GI50 (PC-3 prostate) | GI50 (RXF 393 renal) | GI50 (SF-295 CNS) | GI50 (SK-OV-3 ovarian) | GI50 (SNB-19 CNS) | GI50 (TK-10 renal) | GI50 (M14 melanoma)
COc1ccc(NS(=O)c2ccc(-c3ccccc3)cc2)cc1 (centres undefined) | 31.2 µM | > 100 µM | > 100 µM | > 100 µM | > 100 µM | > 100 µM | > 100 µM | > 100 µM | > 100 µM |  |  |  |  |  |  |  |  |  |  | 
CC1SC(c2ccccc2)N(Nc2c3ccccc3nc3ccccc23)C1=O (centres undefined) |  | > 100 µM |  | > 100 µM |  |  | > 100 µM | > 100 µM |  | > 100 µM |  |  |  |  |  |  |  |  |  | 
COc1ccc(OC)c([N+](=O)[O-])c1-c1nc2sccn2c1/C=N/N=C(N)N | 92.6 µM | > 100 µM | > 100 µM | > 100 µM | > 100 µM | > 100 µM | > 100 µM | > 100 µM | > 100 µM | > 100 µM |  |  |  |  |  |  |  |  |  | 
COc1cc2cc[n+](C)c(Cc3ccccc3)c2cc1OC |  | > 100 µM |  | > 100 µM |  | > 100 µM | > 100 µM | > 100 µM | > 100 µM | > 100 µM |  |  |  |  |  |  |  |  |  | 
CN1CCN(c2ccc(-c3ccc4ncc(C#N)c(Nc5ccc(F)c(Cl)c5)c4c3)cc2)CC1 | 9.88 µM |  | 3.68 µM | 14.5 µM | 7.92 µM | 5.54 µM | 3.61 µM | 19.2 µM | 18.8 µM | 15.1 µM | 2.55 µM | 1.89 µM | 2.74 µM | 2.08 µM | 1.62 µM | 1.82 µM | 2.9 µM | 3.36 µM | 0.484 µM | 
NCC[Se][Se]CCN | 82.2 µM | 13.3 µM | 24.9 µM | 38.1 µM | 27.5 µM | 32.5 µM | 11.5 µM | 20.7 µM | 30.7 µM | 25.8 µM |  |  |  |  |  |  |  |  |  | 
COc1ccc(-c2cc(-c3ccccc3)n(C3OCC(OC(C)=O)C(OC(C)=O)C3OC(C)=O)c(=S)c2C#N)cc1 (centres undefined) | > 100 µM | > 100 µM | > 100 µM | > 100 µM | > 100 µM | > 100 µM | > 100 µM | > 100 µM | > 100 µM | > 100 µM |  |  |  |  |  |  |  |  |  | 
Cc1nc2ccccc2c(=O)n1-c1n[nH]c2ccccc12 | > 100 µM | > 100 µM | > 100 µM | > 100 µM | > 100 µM | > 100 µM | > 100 µM | > 100 µM | > 100 µM |  |  |  |  |  |  |  |  |  |  | 
O=C(N/C(=C\c1ccccc1[N+](=O)[O-])c1nc2ccccc2[nH]1)c1ccccc1 |  | > 100 µM |  | > 100 µM |  | > 100 µM | > 100 µM | > 100 µM | > 100 µM | > 100 µM |  |  |  |  |  |  |  |  |  | 
O=[N+]([O-])c1ccc(N=Nc2c(O)ccc3cc(S(=O)(=O)O)ccc23)cc1 | > 100 µM | > 100 µM | > 100 µM | > 100 µM | > 100 µM | > 100 µM | > 100 µM | > 100 µM | > 100 µM | > 100 µM |  |  |  |  |  |  |  |  |  | 
CCC(CS(=O)(=O)O)[N+](=O)[O-] (centres undefined) | > 100 µM | > 100 µM | > 100 µM | > 100 µM | > 100 µM | > 100 µM | > 100 µM | > 100 µM | > 100 µM | > 100 µM |  |  |  |  |  |  |  |  |  | 
O=C(CCCn1c(=O)c2sc3ccccc3c2n2nnc(-c3ccccc3)c12)NCCc1cnc[nH]1 |  |  | 3.06 µM | 2.79 µM |  | 5.02 µM |  | 5.04 µM |  | 15.7 µM |  | 1.49 µM | 0.32 µM |  | 2.52 µM |  | 3.44 µM | 1.71 µM |  | 
CC(CN(C)C)C(=O)c1ccccc1C(=O)O (centres undefined) | 80.6 µM | 76.6 µM | 50.9 µM | 98.8 µM | 94.5 µM | > 100 µM | > 100 µM | > 100 µM | 47.7 µM | > 100 µM |  |  |  |  |  |  |  |  |  | 
Cc1nc(Cl)c(Cl)c(Cl)n1 | 4.49 µM | 0.48 µM | 1.71 µM | 2 µM | 0.988 µM | 1.85 µM | 3.58 µM | 2.74 µM | 3.51 µM | 7.53 µM |  |  |  |  |  |  |  |  |  | 
C=C(C)[C@@H]1CC[C@]2(C)CC[C@]3(C)[C@H](CC[C@@H]4[C@@]5(C)CC[C@H](OC(=O)c6ccccc6)C(C)(C)[C@@H]5CC[C@]43C)[C@@H]12 | > 100 µM | > 100 µM | > 100 µM | > 100 µM | > 100 µM |  | > 100 µM | > 100 µM | > 100 µM | > 100 µM |  |  |  |  |  |  |  |  |  | 
Cn1c(NN)nc(-c2ccc([N+](=O)[O-])cc2)c(C#N)c1=O | 32.9 µM | 25 µM | 32.8 µM | 42.3 µM | 43.5 µM | 28 µM | 29.9 µM | 26.3 µM | 27.4 µM | 28.2 µM |  |  |  |  |  |  |  |  |  | 
CNC(C)Cc1ccccc1O (centres undefined) |  | > 100 µM |  | > 100 µM |  | > 100 µM | > 100 µM | > 100 µM | > 100 µM | > 100 µM |  |  |  |  |  |  |  |  |  | 
Nc1ccc2c(c1)C1=NNC(=O)CC1C2 (centres undefined) |  |  |  | > 100 µM |  | > 100 µM | > 100 µM | > 100 µM |  | > 100 µM |  |  |  |  |  |  |  |  |  | 
COc1cc(-c2n/c(=C\c3c(O)[nH]c4ccc(Cl)cc34)cc3c2=Nc2ccccc2-3)cc(OC)c1OC | 8.31 µM | 3.02 µM | 5.15 µM |  | 5.92 µM | 3.33 µM | 10.2 µM | 3.84 µM | 3.2 µM | 4.79 µM | 2.29 µM | 2.08 µM |  | 1.82 µM | 1.63 µM | 3.31 µM | 2.16 µM | 1.18 µM | 1.5 µM | 1.43 µM
